Assay results taken from paper PMC6329768, “Dinitroimidazoles as bifunctional bioconjugation reagents for protein functionalization and peptide macrocyclization” (Nature Communications, 2019).
One block for each compound: values may come before it.

Experiments:
[1] = chemical stability of peptide conjugates under acidic, basic or oxidative conditions (HPLC); assay type: physicochemical; conditions: 10 h, conjugate 0.05 mM, three independent experiments; for stability of conjugate at pH 10.0: aqueous buffer pH 10.0, 37 °C
Experimental: The conversion values represent means ± SDs (standard deviations) of three independent experiments The stability of protein conjugates is a major concern for bioconjugation reagents. […] Next, we investigated the stability of the (4-nitroimidazole)-thiol linkage. Thiol-maleimide and thiol-arylation conjugates are reported to degrade under acidic, basic, or oxidative conditions[25],[30],[31]. We incubated conjugate 1c' in aqueous buffer at pH 2.0, pH 10.0, or in the presence of 10 mM H2O2 for 10 h at 37 °C.
Next, we explored the application of 1,4-DNIms in Lys bioconjugation of peptides. […] HRMS analysis and NMR analysis determined that product 1d is a ε-(4-nitroimidazole)-Lys derivative (Fig. 6a, Supplementary Figs. 28–32). Next, we explored the chemoselectivity of compound 1a in DMSO via incubation with nucleophilic amino acids, including Tyr, Ser, Trp, His, Asp, and Arg. […] To sum up, 1,4-DNIms react specifically with cysteine thiols under neutral aqueous conditions, and modify lysine ε-amines through a distinct mechanism with high selectivity in organic solvents in the absence of thiols by generating stable conjugates.
Supplementary Figure 15. Stability of 4-nitroimidazole-ACA adduct 1c’ (0.05 mM) in buffers at pH 2.0, pH 10.0, or in 10 mM H2O2 at 37 °C for 10 h before subjected to HPLC analysis. Gradient used:isocratic 2% CH3CN for 5 min, then 2% to 90% CH3CN in 25 min, then isocratic 90% CH3CN for 5 min, then 90% to 2% CH3CN in 5 min. Monitor wavelength: 365 nm.
Supplementary Figure 16. Stability of NEM-2a’ conjugate (0.05 mM) in buffers at pH 2.0 and 10.0. NEM-2a’ conjugate was incubated at pH 2.0 and pH 10.0 at 37 °C for 10 h before subjected to HPLC analysis. Gradient used:isocratic 2% CH3CN for 5 min, then 2% to 90% CH3CN in 25 min, then isocratic 90% CH3CN for 5 min, then 90% to 2% CH3CN in 5 min. Monitor wavelength: 254 nm. […]

[2] = Cys-Cys side-chain stapling of unprotected peptides with bis(1,4-dinitroimidazole) linker 5a (bis[(1,4-dinitroimidazol-2-yl)methyl] succinate, 1.0 eq) by cine-substitution at imidazole C5; sodium ascorbate 2.0 mM; conditions: the molecule shown is the open-chain precursor, 100 mM HEPES buffer pH 7.0, 1.0 mM, 25.0 °C
[3] = Lys-Lys (or Dap-Dap) side-chain stapling of unprotected peptides with bis(1,4-dinitroimidazole) linker 5a (bis[(1,4-dinitroimidazol-2-yl)methyl] succinate, 1.2 mM), DIEA 4.0 mM; ANRORC ring-opening/ring-closing gives 1-alkyl-4-nitroimidazole linkages; conditions: the molecule shown is the open-chain precursor, DMSO (ca. 84%, with ca. 10% water and 6% MeCN from stock solutions), 1.0 mM, 37.0 °C, 2.0 h
[4] = hydrolytic stability of reagents in PBS buffer pH 7.4 (HPLC); assay type: physicochemical; conditions: 100 mM PBS buffer, pH 7.4, 37 °C, HPLC analysis
Experimental: Stability of N-phenyl maleimide in 100 mM PBS buffer,
pH 7.4 at 37 °C for indicated time before subjected to HPLC analysis.
at 37 °C for indicated time before subjected to HPLC analysis.

[5] = solubility in aqueous solutions; assay type: physicochemical
Source text: Lysines are rich in natural proteins and usually solvent-exposed on protein surface, therefore representing a major competition.

- stability of conjugate under oxidative conditions ([1]; 10 mM H2O2 in Na2CO3 buffer at pH 8.0, 37 °C): did not decompose
- stability of conjugate at pH 2.0 ([1]; aqueous buffer pH 2.0, 37 °C): did not decompose
- stability of conjugate at pH 10.0 [1]: did not decompose
Compound: COC(=O)[C@H](C)NC(=O)[C@H](CSc1[nH]cnc1[N+](=O)[O-])NC(=O)[C@H](C)NC(C)=O [1c]

Compound: CC(=O)N[C@@H](C)C(=O)N[C@@H](CSc1[nH]c(COC(=O)CCC(=O)OCc2nc([N+](=O)[O-])cn2[N+](=O)[O-])nc1[N+](=O)[O-])C(=O)N[C@@H](C)C(=O)N[C@@H](CCCNC(=N)N)C(=O)NCC(=O)N[C@@H](Cc1c[nH]c2ccccc12)C(=O)NCC(=O)N[C@@H](CS)C(=O)N[C@@H](C)C(=O)O [Ac-Ala-Cys-Ala-Arg-Gly-Trp-Gly-Cys-Ala-OH]
- ring closure, conversion by HPLC ([2]; 37-membered ring, 0.167 h): 95%

Compound: CC(=O)N[C@@H](C)C(=O)N[C@@H](CSc1[nH]c(COC(=O)CCC(=O)OCc2nc([N+](=O)[O-])cn2[N+](=O)[O-])nc1[N+](=O)[O-])C(=O)N[C@@H](C)C(=O)N[C@H](C(=O)N[C@@H](CC(N)=O)C(=O)N[C@@H](CS)C(=O)N[C@@H](C)C(=O)O)[C@@H](C)O [Ac-Ala-Cys-Ala-Thr-Asn-Cys-Ala-OH]
- ring closure, conversion by HPLC ([2]; 31-membered ring, 0.167 h): 95%

Compound: CC(=O)N[C@@H](C)C(=O)N[C@@H](CSc1[nH]c(COC(=O)CCC(=O)OCc2nc([N+](=O)[O-])cn2[N+](=O)[O-])nc1[N+](=O)[O-])C(=O)NCC(=O)N[C@@H](CS)C(=O)N[C@@H](C)C(=O)O [Ac-Ala-Cys-Gly-Cys-Ala-OH]
- ring closure, conversion by HPLC ([2]; 25-membered ring, 0.167 h): 95%

Compound: CC(=O)N[C@@H](C)C(=O)N[C@@H](CSc1[nH]c(COC(=O)CCC(=O)OCc2nc([N+](=O)[O-])cn2[N+](=O)[O-])nc1[N+](=O)[O-])C(=O)NCC(=O)N[C@@H](Cc1ccccc1)C(=O)N[C@@H](CCCCN)C(=O)N[C@@H](C)C(=O)N[C@@H](CS)C(=O)NCC(=O)N[C@H](C(=O)N[C@@H](CCCCN)C(=O)O)C(C)C [Ac-Ala-Cys-Gly-Phe-Lys-Ala-Cys-Gly-Val-Lys-OH]
- ring closure, conversion by HPLC ([2]; 34-membered ring, 0.5 min): 100%

Compound: CC(=O)N[C@@H](C)C(=O)N[C@@H](Cn1cc([N+](=O)[O-])nc1COC(=O)CCC(=O)OCc1nc([N+](=O)[O-])cn1[N+](=O)[O-])C(=O)N[C@H](C(=O)N[C@H](C(=O)N[C@@H](Cc1ccccc1)C(=O)N[C@@H](CC(N)=O)C(=O)N[C@@H](CC(C)C)C(=O)N[C@@H](Cc1c[nH]c2ccccc12)C(=O)N[C@@H](CN)C(=O)N[C@@H](C)C(=O)O)[C@@H](C)O)[C@@H](C)O [Ac-Ala-Dap-Thr-Thr-Phe-Asn-Leu-Trp-Dap-Ala-OH]
- ring closure, conversion by HPLC ([3]; 36-membered ring): 95%

Compound: CC(=O)N[C@@H](C)C(=O)N[C@@H](CCCCn1cc([N+](=O)[O-])nc1COC(=O)CCC(=O)OCc1nc([N+](=O)[O-])cn1[N+](=O)[O-])C(=O)N[C@@H](Cc1ccccc1)C(=O)N[C@@H](CC(N)=O)C(=O)N[C@@H](CC(C)C)C(=O)N[C@@H](Cc1c[nH]c2ccccc12)C(=O)N[C@@H](CCCCN)C(=O)N[C@@H](C)C(=O)O [Ac-Ala-Lys-Phe-Asn-Leu-Trp-Lys-Ala-OH]
- ring closure, conversion by HPLC ([3]; 36-membered ring): 90%

Compound: CC(=O)N[C@@H](C)C(=O)N[C@@H](CCCCn1cc([N+](=O)[O-])nc1COC(=O)CCC(=O)OCc1nc([N+](=O)[O-])cn1[N+](=O)[O-])C(=O)N[C@H](C(=O)N[C@@H](Cc1ccccc1)C(=O)N[C@@H](CC(N)=O)C(=O)N[C@@H](CCCCN)C(=O)N[C@@H](C)C(=O)O)[C@@H](C)O [Ac-Ala-Lys-Thr-Phe-Asn-Lys-Ala-OH]
- ring closure, conversion by HPLC ([3]; 33-membered ring): 95%

Compound: CC(=O)N[C@@H](CC(C)C)C(=O)N[C@H](C(=O)N[C@@H](Cc1ccccc1)C(=O)N[C@@H](CCCCn1cc([N+](=O)[O-])nc1COC(=O)CCC(=O)OCc1nc([N+](=O)[O-])cn1[N+](=O)[O-])C(=O)N[C@@H](Cc1c[nH]cn1)C(=O)N[C@@H](Cc1ccc(O)cc1)C(=O)N[C@@H](Cc1c[nH]c2ccccc12)C(=O)N[C@@H](C)C(=O)N[C@@H](CCC(N)=O)C(=O)N[C@@H](CC(C)C)C(=O)N[C@@H](CCCCN)C(=O)N[C@@H](CO)C(=O)O)[C@@H](C)O [Ac-Leu-Thr-Phe-Lys-His-Tyr-Trp-Ala-Gln-Leu-Lys-Ser-OH]
- ring closure, conversion by HPLC ([3]; 42-membered ring): 90%

Compound: N=C(N)NCCC[C@H](NC(=O)[C@H](CSc1[nH]c(COC(=O)CCC(=O)OCc2nc([N+](=O)[O-])cn2[N+](=O)[O-])nc1[N+](=O)[O-])NC(=O)[C@@H](N)Cc1ccccc1)C(=O)NCC(=O)N[C@@H](CC(=O)O)C(=O)N[C@@H](CS)C(=O)O [H-Phe-Cys-Arg-Gly-Asp-Cys-OH]
- ring closure, conversion by HPLC ([2]; 31-membered ring, 0.167 h): 90%

- stability of conjugate at pH 10.0 [1]: complete hydrolysis
Compound: CCN1C(=O)CC(SC[C@H](NC(=O)[C@H](C)NC(C)=O)C(=O)N[C@@H](C)C(=O)O)C1=O (stereo partly shown) [N-ethyl maleimide conjugate of 2a′]

Compound: O=C1C=CC(=O)N1c1ccccc1 [N-phenyl maleimide]
- time to complete hydrolysis (yielding the maleamic acid) [4]: ≤ 2 h

- solubility in aqueous solutions [5]: < 50 µM
Compound: O=S(=O)(c1c(F)c(F)c(F)c(F)c1F)c1c(F)c(F)c(F)c(F)c1F [pf1, 6,6′-sulfonylbis(1,2,3,4,5-pentafluorobenzene)]

Compound: Ac-Ala-Lys-Ser-Gln-Val-Thr-Phe-Asn-Leu-Trp-Arg-Met-Gln-Lys-Ala-OH
- ring closure, conversion by HPLC ([3]; 57-membered ring): 92%
